# Source: patent US7700786B2, “Pyrazole derivative, intermediate therefor, processes for producing these, and herbicide containing these as active ingredient” (Sagami Chemical Research Center, priority 2001, dated 2010)
# Tests used:
# Echinochloa oryzicola = assay: Herbicidal efficacy test by pre-emergence treatment under submergence condition; type: in vivo; conditions: 15th day after treatment, ratings of 1 to 5
# Excerpt: (§1) A 1/10,000-are pot was filled with paddy field soil, and, after plowing, seeds of Echinochloa oryzicola, Cyperus difformis, Monochoria vaginalis, Scirpus juncoides, Eleocharis acicularis and other annual broadleaf weeds such as Lindernia procumbens, Rotala indica and Elatine triandra were sown. Rice (oryza sativa) seedlings (cultiver “Koshihikari”) at a 2.5-leaf stage were transplanted and kept under a submergence condition. After one day, the wettable powder or emulsifiable concentrate of the compound of the present invention, prepared according to Preparation Example, was diluted and dropped on a water surface at a predetermined dose.
# Cyperus difformis = assay: as above; type: in vivo; conditions: 15th day after treatment, ratings of 1 to 5; also: key: 1 shows no influence; 5 shows complete die
# Excerpt: as §1
# [1] = system: annual broadleaf weeds such as Lindernia procumbens, Rotala indica and Elatine triandra; assay: as above; type: in vivo; conditions: 15th day after treatment, ratings of 1 to 5
# Excerpt: as §1
# Monochoria vaginalis = assay: as above; type: in vivo; conditions: 15th day after treatment, ratings of 1 to 5; also: key: 1 shows no influence; 5 shows complete die
# Excerpt: as §1
# Scirpus juncoides = assay: as above; type: in vivo; conditions: 15th day after treatment, ratings of 1 to 5
# Eleocharis acicularis = assay: as above; type: in vivo; conditions: 15th day after treatment, ratings of 1 to 5; also: key: 1 shows no influence; 5 shows complete die
# Excerpt: as §1
compound,measurement,setting,value
"CCNC(=O)n1nc(Oc2ncc(C(F)(F)F)cc2Cl)cc1C [Compound 4-16, N-ethyl-3-(3-chloro-5-trifluoromethylpyridin-2-yloxy)-5-methylpyrazole-1-carboxamide]",Herbicidal efficacy Eo,Echinochloa oryzicola; dose 0.5 kg/ha,5
same,Herbicidal efficacy Eo,Echinochloa oryzicola; dose 1 kg/ha,5
same,Herbicidal efficacy Cd,Cyperus difformis; dose 0.5 kg/ha,5
same,Herbicidal efficacy Cd,Cyperus difformis; dose 1 kg/ha,5
same,Herbicidal efficacy Blw,[1]; dose 0.5 kg/ha,5
same,Herbicidal efficacy Blw,[1]; dose 1 kg/ha,5
same,Herbicidal efficacy Mv,Monochoria vaginalis; dose 0.5 kg/ha,5
same,Herbicidal efficacy Mv,Monochoria vaginalis; dose 1 kg/ha,5
same,Herbicidal efficacy Sj,Scirpus juncoides; dose 0.5 kg/ha,4.8
same,Herbicidal efficacy Sj,Scirpus juncoides; dose 1 kg/ha,5
same,Herbicidal efficacy Ea,Eleocharis acicularis; dose 0.5 kg/ha,5
same,Herbicidal efficacy Ea,Eleocharis acicularis; dose 1 kg/ha,5
"CCCNC(=O)n1nc(Oc2ncc(C(F)(F)F)cc2Cl)cc1C [Compound 4-23, N-propyl-3-(3-chloro-5-trifluoromethylpyridin-2-yloxy)-5-methylpyrazole-1-carboxamide]",Herbicidal efficacy Eo,Echinochloa oryzicola; dose 0.5 kg/ha,5
same,Herbicidal efficacy Eo,Echinochloa oryzicola; dose 1 kg/ha,5
same,Herbicidal efficacy Cd,Cyperus difformis; dose 0.5 kg/ha,5
same,Herbicidal efficacy Cd,Cyperus difformis; dose 1 kg/ha,5
same,Herbicidal efficacy Blw,[1]; dose 0.5 kg/ha,4.8
same,Herbicidal efficacy Blw,[1]; dose 1 kg/ha,5
same,Herbicidal efficacy Mv,Monochoria vaginalis; dose 0.5 kg/ha,5
same,Herbicidal efficacy Mv,Monochoria vaginalis; dose 1 kg/ha,5
same,Herbicidal efficacy Sj,Scirpus juncoides; dose 0.5 kg/ha,4.9
same,Herbicidal efficacy Sj,Scirpus juncoides; dose 1 kg/ha,5
same,Herbicidal efficacy Ea,Eleocharis acicularis; dose 0.5 kg/ha,5
same,Herbicidal efficacy Ea,Eleocharis acicularis; dose 1 kg/ha,5
Cc1cc(Oc2c(Cl)cc(C(F)(F)F)cc2Cl)nn1C(=O)NCCCl [Compound 3-143],Herbicidal efficacy Eo,Echinochloa oryzicola; dose 0.5 kg/ha,5
same,Herbicidal efficacy Eo,Echinochloa oryzicola; dose 1 kg/ha,5
same,Herbicidal efficacy Cd,Cyperus difformis; dose 0.5 kg/ha,5
same,Herbicidal efficacy Cd,Cyperus difformis; dose 1 kg/ha,5
same,Herbicidal efficacy Blw,[1]; dose 0.5 kg/ha,5
same,Herbicidal efficacy Blw,[1]; dose 1 kg/ha,5
same,Herbicidal efficacy Mv,Monochoria vaginalis; dose 0.5 kg/ha,5
same,Herbicidal efficacy Mv,Monochoria vaginalis; dose 1 kg/ha,5
same,Herbicidal efficacy Sj,Scirpus juncoides; dose 0.5 kg/ha,4
same,Herbicidal efficacy Sj,Scirpus juncoides; dose 1 kg/ha,5
same,Herbicidal efficacy Ea,Eleocharis acicularis; dose 0.5 kg/ha,5
same,Herbicidal efficacy Ea,Eleocharis acicularis; dose 1 kg/ha,5
"CNC(=O)n1nc(Oc2ccc(C(F)(F)F)cc2N)cc1C [Example 242, N-methyl-3-(2-amino-4-trifluoromethylphenyloxy)-5-methylpyrazole-1-carboxamide]",melting point,,93 to 94 °C
"Cc1cc(Oc2ccc(C(F)(F)F)cc2[N+](=O)[O-])nn1C(=O)NC(C)(C)C [Example 86, N-tert-butyl-5-methyl-3-(2-nitro-4-trifluoromethylphenyloxy)-pyrazole-1-carboxamide]",melting point,,104 to 106 °C
"CCNC(=O)n1nc(Oc2c(F)cc(C(F)(F)F)cc2F)cc1C [Example 124, N-ethyl-3-(2,6-difluoro-4-trifluoromethylphenyloxy)-5-methylpyrazole-1-carboxamide]",melting point,,102 to 104 °C
"CCCNC(=O)n1nc(Oc2c(Cl)cc(C(F)(F)F)cc2Cl)cc1C(Cl)(Cl)Cl [Example 250, N-propyl-3-(2,6-dichloro-4-trifluoromethylphenyloxy)-5-trichloromethylpyrazole-1-carboxamide]",melting point,,89 to 91 °C
CNC(=O)n1nc(Oc2c(Cl)cc(C(F)(F)F)cc2Cl)cc1C,melting point,,113 to 114 °C
"Cc1cc(Oc2c(F)cc(C(F)(F)F)cc2Cl)n[nH]1 [Compound 1-19, 3-(2-chloro-6-fluoro-4-trifluoromethylphenyloxy)-5-methylpyrazole]",melting point,,171 to 174 °C
CCc1c(Oc2ccc(C(F)(F)F)cc2[N+](=O)[O-])nn(C(=O)NC)c1C,melting point,,81 to 82 °C
CCc1cc(Oc2ccc([N+](=O)[O-])cc2C(F)(F)F)nn1C(=O)NC,melting point,,97 to 100 °C
"CCNC(=S)n1nc(Oc2ncc(C(F)(F)F)cc2Cl)cc1C [Compound 4-17, N-ethyl-3-(3-chloro-5-trifluoromethylpyridin-2-yloxy)-5-methylpyrazole-1-carbothioamide]",Herbicidal efficacy Eo,Echinochloa oryzicola; dose 0.5 kg/ha,5
same,Herbicidal efficacy Eo,Echinochloa oryzicola; dose 1 kg/ha,5
same,Herbicidal efficacy Cd,Cyperus difformis; dose 0.5 kg/ha,5
same,Herbicidal efficacy Cd,Cyperus difformis; dose 1 kg/ha,5
same,Herbicidal efficacy Blw,[1]; dose 0.5 kg/ha,4.8
same,Herbicidal efficacy Blw,[1]; dose 1 kg/ha,5
same,Herbicidal efficacy Mv,Monochoria vaginalis; dose 0.5 kg/ha,5
same,Herbicidal efficacy Mv,Monochoria vaginalis; dose 1 kg/ha,5
same,Herbicidal efficacy Sj,Scirpus juncoides; dose 0.5 kg/ha,4.5
same,Herbicidal efficacy Sj,Scirpus juncoides; dose 1 kg/ha,4.8
same,Herbicidal efficacy Ea,Eleocharis acicularis; dose 0.5 kg/ha,5
same,Herbicidal efficacy Ea,Eleocharis acicularis; dose 1 kg/ha,5
"Cc1c(Cl)c(Oc2c(Cl)cc(C(F)(F)F)cc2Cl)nn1C(=O)NC(C)C [Example 249, N-isopropyl-4-chloro-3-(2,6-dichloro-4-trifluoromethylphenyloxy)-5-methylpyrazole-1-carboxamide]",melting point,,109 to 111 °C
Cc1c(Cl)c(Oc2c(Cl)cc(C(F)(F)F)cc2Cl)nn1C(=O)NCCCl,melting point,,141 to 143 °C
"COCNC(=S)n1nc(Oc2ccc(C#N)cc2C(F)(F)F)cc1C [Example 177, N-methoxymethyl-3-(4-cyano-2-trifluoromethylphenyloxy)-5-methylpyrazole-1-carbothioamide]",melting point,,89 to 90 °C
"Cc1cc(Oc2ccc([N+](=O)[O-])c(Cl)c2)n[nH]1 [Compound 1-23, 3-(3-chloro-4-nitrophenyloxy)-5-methylpyrazole]",melting point,,91 to 93 °C
"CNC(=O)n1nc(Oc2ncc(C(F)(F)F)cc2Cl)cc1C(F)(F)F [Compound 4-91, N-methyl-3-(3-chloro-5-trifluoromethylpyridin-2-yloxy)-5-trifluoromethylpyrazole-1-carboxamide]",melting point,,61 to 63 °C
"CC(C)N(C(=O)n1nc(Oc2ccc(C(F)(F)F)cc2[N+](=O)[O-])cc1C(F)(F)F)C(C)C [Example 241, N,N-Diisopropyl-3-(2-nitro-4-trifluoromethylphenyloxy)-5-trifluoromethylpyrazole-1-carboxamide]",melting point,,118 to 120 °C
CNC(=S)n1nc(Oc2ncc(C(F)(F)F)cc2Cl)cc1C,melting point,,63 to 65 °C
"Cc1cc(Oc2ccc([N+](=O)[O-])c(C)c2)n[nH]1 [Compound 1-4, 5-methyl-3-(4-nitro-3-methylphenyloxy)pyrazole]",melting point,,114 to 117 °C
"CCNC(=O)n1nc(Oc2ncc(C(F)(F)F)cc2Cl)cc1C(F)(F)F [Compound 4-93, N-ethyl-3-(3-chloro-5-trifluoromethylpyridin-2-yloxy)-5-trifluoromethylpyrazole-1-carboxamide]",melting point,,52 to 54 °C
"CNC(=O)n1nc(Oc2ncc(C(F)(F)F)cc2Cl)cc1C [Compound 4-6, N-methyl-3-(3-chloro-5-trifluoromethylpyridin-2-yloxy)-5-methylpyrazole-1-carboxamide]",Herbicidal efficacy Eo,Echinochloa oryzicola; dose 0.5 kg/ha,4.8
same,Herbicidal efficacy Eo,Echinochloa oryzicola; dose 1 kg/ha,5
same,Herbicidal efficacy Cd,Cyperus difformis; dose 0.5 kg/ha,5
same,Herbicidal efficacy Cd,Cyperus difformis; dose 1 kg/ha,5
same,Herbicidal efficacy Blw,[1]; dose 0.5 kg/ha,5
same,Herbicidal efficacy Blw,[1]; dose 1 kg/ha,5
same,Herbicidal efficacy Mv,Monochoria vaginalis; dose 0.5 kg/ha,5
same,Herbicidal efficacy Mv,Monochoria vaginalis; dose 1 kg/ha,5
same,Herbicidal efficacy Sj,Scirpus juncoides; dose 0.5 kg/ha,4.6
same,Herbicidal efficacy Sj,Scirpus juncoides; dose 1 kg/ha,5
same,Herbicidal efficacy Ea,Eleocharis acicularis; dose 0.5 kg/ha,5
same,Herbicidal efficacy Ea,Eleocharis acicularis; dose 1 kg/ha,5
"CCNC(=O)n1nc(Oc2ccc(N)c(C(F)(F)F)c2)cc1C [Example 100, N-ethyl-3-(4-amino-3-trifluoromethylphenyloxy)-5-methylpyrazole-1-carboxamide]",melting point,,102 to 104 °C
"CCNC(=O)n1nc(Oc2ncc(Cl)cc2Cl)cc1C [Compound 4-15, N-ethyl-3-(3,5-dichloropyridin-2-yloxy)-5-methylpyrazole-1-carboxamide]",melting point,,74 to 76 °C
"CCNC(=O)n1nc(Oc2cc(OCC)ccc2[N+](=O)[O-])cc1C [Example 99, N-ethyl-3-(5-ethoxy-2-nitrophenyloxy)-5-methylpyrazole-1-carboxamide]",melting point,,73 to 75 °C
Cc1cc(Oc2c([N+](=O)[O-])cc([N+](=O)[O-])cc2C(F)(F)F)n[nH]1,melting point,,145 to 147 °C
"COCNC(=S)n1nc(Oc2c(Cl)cc(C(F)(F)F)cc2Cl)cc1C [Example 178, N-methoxymethyl-3-(2,6-dichloro-4-trifluoromethylphenyloxy)-5-methylpyrazole-1-carbothioamide]",melting point,,95 to 96 °C
"CCNC(=O)n1nc(Oc2ncc(C(F)(F)F)cc2Cl)c(CC)c1C [Compound 4-85, N-ethyl-3-(3-chloro-5-trifluoromethylpyridin-2-yloxy)-4-ethyl-5-methylpyrazole-1-carboxamide]",melting point,,101 to 102 °C
